Like-named read-outs stand apart in the source and are kept apart here.
Experiments:
hCB2R [1] = target: T1, hCB2R (Homo sapiens, UniProt P34972); test: CB2R bias analysis (operational model, cAMP inhibition vs βarrestin2); type: cell-based; settings: CP55,940 as reference agonist; >0 cAMP bias, <0 βarrestin2 bias
T1 construct: host or cells: CHO-K1 (PathHunter)
Experimental: Estimates of Ki, EC50, Emin, and Emax were determined using non-linear regression with variable slope (four parameters) (GraphPad, Prism, v. 8.0). […] One-way analysis of variance (ANOVA), followed by Tukey’s post-hoc test, was used for statistical analyses (p < 0.05 determined to be significant); and Bartlett’s test was used to confirm homogeneity of variance (GraphPad).

hCB2R [2] = target: T1, hCB2R; test: HitHunter inhibition of FSK-stimulated cAMP, CB2R; type: cell-based
hCB1R [3] = target: T2, hCB1R (Homo sapiens, UniProt P21554); test: biochemical; type: binding; settings: for CB1R versus CB2R selectivity, receptor affinity: CB1R vs CB2R [^3H]CP55,940 binding
T2 construct: expressed in transfected cells; host or cells: CHO-K1
T2 sequence (P21554 whole entry): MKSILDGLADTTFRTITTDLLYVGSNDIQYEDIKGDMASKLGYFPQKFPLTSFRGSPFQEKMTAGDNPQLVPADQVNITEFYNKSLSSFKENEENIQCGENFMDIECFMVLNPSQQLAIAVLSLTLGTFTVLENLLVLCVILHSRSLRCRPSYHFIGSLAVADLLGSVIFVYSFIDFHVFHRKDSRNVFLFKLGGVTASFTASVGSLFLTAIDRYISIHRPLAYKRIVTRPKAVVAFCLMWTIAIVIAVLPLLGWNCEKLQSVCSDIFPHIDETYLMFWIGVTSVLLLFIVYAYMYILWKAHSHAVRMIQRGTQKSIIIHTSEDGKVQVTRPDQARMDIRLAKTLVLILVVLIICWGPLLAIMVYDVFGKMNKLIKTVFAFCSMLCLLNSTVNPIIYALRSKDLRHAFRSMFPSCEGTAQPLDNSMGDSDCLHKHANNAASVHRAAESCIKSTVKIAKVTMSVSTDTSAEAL

hCB2R [4] = target: T1, hCB2R; test: PathHunter βarrestin2 recruitment, CB2R; type: cell-based
hCB2R [5] = target: T1, hCB2R; test: [^3H]CP55,940 competition (radioligand displacement) binding to CB2R; settings: for CB2R [^3H]CP55,940 Emin: bottom of the concentration–response curve, mean ± SEM
hCB1R [6] = target: T2, hCB1R; test: cell-based; type: cell-based; settings: for EC50: CHO hCB1R, 10 µM FSK, 90 min, value with 95% CI, read-out: CB1R cAMP Inhibition EC50; for Emax: read-out: CB1R cAMP Inhibition Emax
hCB1R [7] = target: T2, hCB1R; test: cell-based; type: cell-based; settings: for EC50: CHO hCB1R, 90 min, value with 95% CI, read-out: CB1R βarrestin2 recruitment EC50; for Emax: read-out: CB1R βarrestin2 recruitment Emax; for βarrestin2 recruitment to CB1R, activity in words: relative to CP55940
male C57Bl/6 mice = test: Elevated plus maze (EPM); type: in vivo; settings: 1.0 mg/kg i.p., 30 min after treatment, 5 min trial
Experimental: Adult male C57BL/6 mice aged 6–10 weeks (mean weight 24 ± 0.5 g) were purchased from Charles River Labs (Senneville, QC). Animals were group housed (three per cage) with ad libitum access to food, water, and environmental enrichment and maintained on a 12 h light/dark cycle. Mice were randomly assigned to receive i.p. injections of vehicle (1:1:18 ethanol:emulphor:saline) or 0.1–10 mg/kg SCRA (n ≥ 4 per group). All protocols have been described previously and were in accordance with the guidelines detailed by the Canadian Council on Animal Care and approved by the Animal Research Ethics Board and the Scientific Merit Review Committee for Animal Behaviour at the University of Saskatchewan. The following steps were taken to ensure our study was in keeping with the ARRIVE guidelines: (1) power analyses were conducted to determine the minimum number of animals required for the study; (2) animals were purchased—rather than bred—to limit animal waste; and (3) all assessments of animal behaviour were made by individuals blinded to the treatment group,[57].
EPM was conducted according to methods adapted from Marks et al.. The EPM was built from a plywood base painted blue with blue corrugated plastic floor and walls. The floor of the maze was composed of perpendicular interlocking arms (110 cm long × 10 cm wide) with two arms having 45 cm walls (closed arms) and two arms having no walls and a 0.5 cm edge (open arms), all elevated 45 cm from the ground. Trials began with the mouse in the central zone facing an open arm. Trials lasted 5 min and began 30 min after SCRA treatment. An arm entry was considered to be all four limbs leaving the central zone. Arm entries and the percent time spent in open versus closed arms were recorded by an observer blinded to the treatment group. Less time in the open arms and more time in the closed arms was used as a model of anxiogenic behaviour.

[8] = bottom of the concentration–response curve, mean ± SEM

T1 sequence (P34972 whole entry): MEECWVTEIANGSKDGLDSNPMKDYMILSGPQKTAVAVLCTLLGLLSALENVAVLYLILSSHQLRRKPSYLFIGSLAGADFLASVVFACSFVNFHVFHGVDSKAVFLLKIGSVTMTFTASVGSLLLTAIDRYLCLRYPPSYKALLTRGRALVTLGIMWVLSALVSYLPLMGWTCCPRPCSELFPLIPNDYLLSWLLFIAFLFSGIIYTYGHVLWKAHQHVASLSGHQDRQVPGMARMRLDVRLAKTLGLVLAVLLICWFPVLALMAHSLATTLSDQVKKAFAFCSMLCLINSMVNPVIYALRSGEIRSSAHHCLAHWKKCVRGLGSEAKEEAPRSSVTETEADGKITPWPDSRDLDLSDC

With CCCCCn1cc(C(=O)c2cccc3ccccc23)cc1-c1ccccc1 [JWH 145] as the compound, how does the “CB2R bias between cAMP inhibition and βarrestin2 recruitment, ∆∆LogR (cAMP—βarr2), in words” value (hCB2R [1]) read?
The value was “significant bias toward the inhibition of cAMP”.

And the EC50 (hCB2R [2])?
The EC50 was 61 nM.

What about the Emax (hCB2R [2]) of the same compound?
The Emax was 86 ± 17%.

What about the Ki (hCB1R [3]) of the same compound?
The Ki was 110 nM.

What about the “CB1R [^3H]CP55,940 Emin” value (hCB1R [3]; [8]) of the same compound?
The value was 69 ± 7.6 %.

What about the EC50 (hCB2R [4]) of the same compound?
Its EC50 is 190 nM.

What about the Emax (hCB2R [4]) of the same compound?
The Emax was 15 ± 1.7%.

What about the “Affinity for CB2R compared with CP55,940, in words” value (hCB2R [5]) of the same compound?
Its value is “significantly less affinity”.

What about the Ki (hCB2R [5]) of the same compound?
Its Ki is 860 nM.

And the “CB2R [^3H]CP55,940 Emin” value (hCB2R [5])?
The value was 70 ± 6.1 %.

And the “CB1R versus CB2R selectivity, cAMP inhibition potency” value (hCB1R [6]; CB1R vs CB2R)?
The value was “more potent at CB1R relative to CB2R”.

What about the EC50 (hCB1R [6]) of the same compound?
The EC50 was 0.03 nM.

And the Emax (hCB1R [6])?
Its Emax is 82 ± 9.3%.

What about the EC50 (hCB1R [7]) of the same compound?
Its EC50 is over 10000 nM.

And the Emax (hCB1R [7])?
The Emax was 27 ± 9%.

Which results are given for O=C(c1ccc(Cl)c2ccccc12)c1cn(CCCCCF)c2ccccc12 [Cl 2201]?
CB2R bias between cAMP inhibition and βarrestin2 recruitment, ∆∆LogR (cAMP—βarr2), in words (hCB2R [1]): significant bias toward the inhibition of cAMP; EC50 (hCB2R [2]): 1 nM; Emax (hCB2R [2]): 110 ± 8.4%; Ki (hCB1R [3]): 0.09 nM; CB1R versus CB2R selectivity, receptor affinity (hCB1R [3]): greater affinity at CB1R relative to CB2R; CB1R [^3H]CP55,940 Emin (hCB1R [3]; [8]): 76 ± 2.8 %; EC50 (hCB2R [4]): 120 nM; Emax (hCB2R [4]): 17 ± 1.1%; Ki (hCB2R [5]): 26 nM; CB2R [^3H]CP55,940 Emin (hCB2R [5]): 66 ± 2.5 %; EC50 (hCB1R [6]): 2.6 nM; Emax (hCB1R [6]): 89 ± 3.9%; EC50 (hCB1R [7]): > 10000 nM; Emax (hCB1R [7]): 16 ± 1%; βarrestin2 recruitment to CB1R, activity in words (hCB1R [7]): Inactive at βarrestin2

For O=C(Nc1cccc2ccccc12)c1cn(Cc2ccc(F)cc2)c2ccccc12 [FDU-NNEI], which “CB2R bias between cAMP inhibition and βarrestin2 recruitment, ∆∆LogR (cAMP—βarr2), in words” value (hCB2R [1]) is on record?
The value was “significant bias toward the inhibition of cAMP”.

What about the EC50 (hCB2R [2]) of the same compound?
Its EC50 is 0.01 nM.

What about the Emax (hCB2R [2]) of the same compound?
Its Emax is 103 ± 7.1%.

And the Ki (hCB1R [3])?
Its Ki is 14 nM.

What about the “CB1R versus CB2R selectivity, [^3H]CP55,940 displaced” value (hCB1R [3]; CB1R vs CB2R) of the same compound?
The value was “displaced more [^3H]CP55,940 at CB1R relative to CB2R”.

What about the “CB1R versus CB2R selectivity, receptor affinity” value (hCB1R [3]) of the same compound?
Its value is “greater affinity at CB1R relative to CB2R”.

And the “CB1R [^3H]CP55,940 Emin” value (hCB1R [3]; [8])?
Its value is 41 ± 2.8%.

And the EC50 (hCB2R [4])?
The EC50 was 1000 nM.

And the Emax (hCB2R [4])?
The Emax was 25 ± 1.3%.

What about the Ki (hCB2R [5]) of the same compound?
The Ki was 8.8 nM.

And the “CB2R [^3H]CP55,940 Emin” value (hCB2R [5])?
Its value is 85 ± 8.1 %.

And the EC50 (hCB1R [6])?
The EC50 was 1 nM.

What about the Emax (hCB1R [6]) of the same compound?
Its Emax is 96 ± 8.1%.

And the EC50 (hCB1R [7])?
The EC50 was over 10000 nM.

And the Emax (hCB1R [7])?
Its Emax is 49 ± 8.2%.

CCCCCCC(C)(C)c1ccc([C@@H]2C[C@H](O)CC[C@H]2CCCO)c(O)c1 [CP55,940, reference compound] was tested. Which “CB1R [^3H]CP55,940 Emin” value (hCB1R [3]) did it give?
Its value is 0.0 ± 5.2%.

What about the “CB2R [^3H]CP55,940 Emin” value (hCB2R [5]) of the same compound?
Its value is 0.0 ± 5.6%.

What about the “EPM time in the central quadrant” value (male C57Bl/6 mice) of the same compound?
The value was “majority of their time in the central quadrant immobile”.

And the “EPM total arm entries” value (male C57Bl/6 mice; vs vehicle)?
Its value is “reduced total arm entries”.

For CC(C)C(NC(=O)c1nn(Cc2cccc(F)c2)c2ccccc12)C(N)=O (stereo not drawn) [meta-AB-FUBINACA], which “CB2R bias between cAMP inhibition and βarrestin2 recruitment, ∆∆LogR (cAMP—βarr2), in words” value (hCB2R [1]) is on record?
Its value is “did not display a bias”.

What about the EC50 (hCB2R [2]) of the same compound?
The EC50 was 5.4 nM.

What about the Emax (hCB2R [2]) of the same compound?
The Emax was 86 ± 13%.

What about the Ki (hCB1R [3]) of the same compound?
Its Ki is 16 nM.

And the “CB1R [^3H]CP55,940 Emin” value (hCB1R [3]; [8])?
The value was 30 ± 2.9 %.

What about the EC50 (hCB2R [4]) of the same compound?
Its EC50 is 280 nM.

What about the Emax (hCB2R [4]) of the same compound?
The Emax was 130 ± 3.7%.

And the “βarrestin2 recruitment to CB2R, activity in words” value (hCB2R [4]; relative to CP55,940)?
The value was “not different with regard to potency relative to the reference agonist CP55,940, and produced supramaximal EMax responses”.

And the “Affinity for CB2R compared with CP55,940, in words” value (hCB2R [5])?
Its value is “significantly greater affinity”.

And the Ki (hCB2R [5])?
The Ki was 0.63 nM.

And the “CB2R [^3H]CP55,940 Emin” value (hCB2R [5])?
The value was 89 ± 6.3 %.

And the EC50 (hCB1R [6])?
The EC50 was 5.7 nM.

And the Emax (hCB1R [6])?
Its Emax is 91 ± 12%.

What about the “CB1R versus CB2R selectivity, βarrestin2 recruitment” value (hCB1R [7]; CB1R vs CB2R) of the same compound?
The value was “minimally active at CB1R but agonists at CB2R”.

And the EC50 (hCB1R [7])?
Its EC50 is over 10000 nM.

And the Emax (hCB1R [7])?
The Emax was 22 ± 6.9%.

What about the “βarrestin2 recruitment to CB1R, activity in words” value (hCB1R [7]) of the same compound?
Its value is “Inactive at βarrestin2”.

— article PMC8134483 (Scientific Reports, 2021)
